Where “and” joins values, the source holds several entries; their conditions need not be identical. Equal values may be shown once. Inconclusive results and toxic doses are left out. Rule as the data show it: active = T/C of 150% or more; inactive = T/C below 125%.
Tested on: L1210 leukemia ip in BDF1 mice, survival T/C
Test: NCI In Vivo Anticancer Drug Screen. Data for tumor model L1210 Leukemia (intraperitoneal) in B6D2F1 (BDF1) mice
Settings: endpoint: mean survival time, higher = longer survival
Method in brief: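 Ratio derived from survival: compound-dosed mice over vehicle-dosed mice, all bearing a transplantable tumor.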

[1] = dose: 100.0 mg/kg/injection, schedule: Q04DX003 (ip), vehicle: Klucel (hydroxypropylcellulose) (HPC)
[2] = dose: 200.0 mg/kg/injection, schedule: Q04DX003 (ip), vehicle: Klucel (hydroxypropylcellulose) (HPC)
[3] = dose: 400.0 mg/kg/injection, schedule: Q04DX003 (ip), vehicle: Klucel (hydroxypropylcellulose) (HPC)
[4] = dose: 100.0 mg/kg/injection, schedule: Q04DX002 (ip), vehicle: Klucel (hydroxypropylcellulose) (HPC)
[5] = dose: 200.0 mg/kg/injection, schedule: Q04DX002 (ip), vehicle: Klucel (hydroxypropylcellulose) (HPC)
[6] = dose: 400.0 mg/kg/injection, schedule: Q04DX002 (ip), vehicle: Klucel (hydroxypropylcellulose) (HPC)
[7] = dose: 100.0 mg/kg/injection, schedule: Q01DX009 (ip), vehicle: Klucel (hydroxypropylcellulose) (HPC)
[8] = dose: 200.0 mg/kg/injection, schedule: Q01DX009 (ip), vehicle: Klucel (hydroxypropylcellulose) (HPC)
[9] = dose: 400.0 mg/kg/injection, schedule: Q01DX009 (ip), vehicle: Klucel (hydroxypropylcellulose) (HPC)
[10] = dose: 100.0 mg/kg/injection, schedule: Q04DX003 (ip), vehicle: carboxymethylcellulose (CMC)
[11] = dose: 200.0 mg/kg/injection, schedule: Q04DX003 (ip), vehicle: carboxymethylcellulose (CMC)
[12] = dose: 400.0 mg/kg/injection, schedule: Q04DX003 (ip), vehicle: carboxymethylcellulose (CMC)
[13] = dose: 100.0 mg/kg/injection, schedule: Q01DX001 (ip), vehicle: saline
[14] = dose: 200.0 mg/kg/injection, schedule: Q01DX001 (ip), vehicle: saline
[15] = dose: 400.0 mg/kg/injection, schedule: Q01DX001 (ip), vehicle: saline
[16] = dose: 100.0 mg/kg/injection, schedule: Q01DX009 (ip), vehicle: saline with Tween-80
[17] = dose: 200.0 mg/kg/injection, schedule: Q01DX009 (ip), vehicle: saline with Tween-80
[18] = dose: 400.0 mg/kg/injection, schedule: Q01DX009 (ip), vehicle: saline with Tween-80
[19] = dose: 200.0 mg/kg/injection, schedule: Q04DX003 (ip), vehicle: saline
[20] = dose: 400.0 mg/kg/injection, schedule: Q04DX003 (ip), vehicle: saline

Measured: T/C

O=c1oc2cc(O)ccc2c2ccccc12
inactive: [1] 98 % of control | [2] 96 % of control | [3] 102 % of control

C/C=C(/Br)C(=O)O
inactive: dose: 12.5 mg/kg/injection, schedule: Q04DX002 (ip), vehicle: saline with Tween-80 113 % of control | dose: 25.0 mg/kg/injection, schedule: Q04DX002 (ip), vehicle: saline with Tween-80 105 % of control | dose: 50.0 mg/kg/injection, schedule: Q04DX002 (ip), vehicle: saline with Tween-80 98 % of control | dose: 100.0 mg/kg/injection, schedule: Q04DX002 (ip), vehicle: saline with Tween-80 105 % of control

N#Cc1cccc(C(Br)S(=O)(=O)c2ccccc2)c1 (configuration not stated)
inactive: [4] 116 % of control | [5] 111 % of control | [6] 90 % of control

NCCC1=NCCN1
inactive: [4] 100 % of control | [5] 104 % of control | [6] 104 % of control

CCC1(c2ccccc2)NC(=O)N(C)C1=O (configuration not stated)
inactive: [7] 97 % of control | [1] 100 % of control | [8] 110 % of control | [2] 95 % of control | [3] 90 % of control

CCOc1ccc(NC(=O)C=O)cc1
inactive: [7] 92 % of control | [1] 94 % of control | [8] 103 % of control | [2] 94 % of control | [9] 105 % of control | [3] 97 % of control

O=C(Nc1ncn[nH]1)C(Cl)(Cl)Cl
inactive: [10] 95 % of control | [11] 100 % of control | [12] 97 % of control

CCC(C)OC(=O)C(C)OC(=O)OCCOCCOC(=O)OC(C)C(=O)OC(C)CC (configuration not stated)
inactive: [13] 96 % of control | [14] 100 % of control | [15] 96 % of control

O=C1CCCc2cc(Cl)c(Cl)cc21
inactive: [7] 108 % of control | [8] 96 % of control | [9] 101 % of control

CC(=O)N(c1ccccc1)c1ccc(-c2ccc(N(C(C)=O)c3ccccc3)cc2)cc1
inactive: dose: 50.0 mg/kg/injection, schedule: Q01DX001 (ip), vehicle: other 100 % of control | dose: 100.0 mg/kg/injection, schedule: Q01DX001 (ip), vehicle: other 105 % of control | dose: 200.0 mg/kg/injection, schedule: Q01DX001 (ip), vehicle: other 100 % of control | dose: 400.0 mg/kg/injection, schedule: Q01DX001 (ip), vehicle: other 89 % of control

CC(=O)C(C)(C)O
inactive: [16] 90 % of control | [17] 87 % of control | [18] 92 % of control

CCCCCCC(C)C(COC(=O)c1ccc([N+](=O)[O-])cc1)NCC (configuration not stated)
inactive: dose: 75.0 mg/kg/injection, schedule: Q01DX001 (ip), vehicle: saline 93 % of control | dose: 150.0 mg/kg/injection, schedule: Q01DX001 (ip), vehicle: saline 96 % of control

O=C(N/N=C/C1CCCCC1)C(=O)N/N=C/C1CCCCC1
inactive: dose: 12.5 mg/kg/injection, schedule: Q01DX009 (ip), vehicle: Klucel (hydroxypropylcellulose) (HPC) 90 % of control | dose: 25.0 mg/kg/injection, schedule: Q01DX009 (ip), vehicle: Klucel (hydroxypropylcellulose) (HPC) 96 % of control and 89 % of control | [8] 89 % of control

CCCCCCC(=O)N(CC(C)C)CC(C)C
inactive: dose: 100.0 mg/kg/injection, schedule: Q01DX001 (ip), vehicle: carboxymethylcellulose (CMC) 102 % of control | dose: 100.0 mg/kg/injection, schedule: Q01DX009 (ip), vehicle: carboxymethylcellulose (CMC) 93 % of control and 106 % of control | dose: 100.0 mg/kg/injection, schedule: Q04DX002 (ip), vehicle: carboxymethylcellulose (CMC) 97 % of control | [10] 109 % of control | dose: 200.0 mg/kg/injection, schedule: Q01DX001 (ip), vehicle: carboxymethylcellulose (CMC) 100 % of control | dose: 200.0 mg/kg/injection, schedule: Q01DX009 (ip), vehicle: carboxymethylcellulose (CMC) 104 % of control and 90 % of control | dose: 200.0 mg/kg/injection, schedule: Q04DX002 (ip), vehicle: carboxymethylcellulose (CMC) 102 % of control | [11] 102 % of control | dose: 400.0 mg/kg/injection, schedule: Q01DX001 (ip), vehicle: carboxymethylcellulose (CMC) 90 % of control | dose: 400.0 mg/kg/injection, schedule: Q04DX002 (ip), vehicle: carboxymethylcellulose (CMC) 100 % of control | [12] 100 % of control

CC1CCC2C(C1)N(c1ccccc1)OC2(C)C (configuration not stated)
inactive: [1] 100 % of control | [2] 94 % of control | [3] 102 % of control

CN(C)CC/C(=N\N=C(N)N)c1ccccc1
inactive: dose: 15.0 mg/kg/injection, schedule: Q01DX Z (ip), vehicle: methylcellulose (MC) 96 % of control | dose: 30.0 mg/kg/injection, schedule: Q01DX Z (ip), vehicle: methylcellulose (MC) 90 % of control | dose: 30.0 mg/kg/injection, schedule: Q01DX Z (oral), vehicle: methylcellulose (MC) 89 % of control | dose: 60.0 mg/kg/injection, schedule: Q01DX Z (ip), vehicle: methylcellulose (MC) 94 % of control | dose: 60.0 mg/kg/injection, schedule: Q01DX Z (oral), vehicle: methylcellulose (MC) 91 % of control

O=C(O)CCC(NC(=O)OCc1ccccc1)C(=O)OCc1ccccc1 (configuration not stated)
inactive: dose: 50.0 mg/kg/injection, schedule: Q01DX009 (ip), vehicle: Klucel (hydroxypropylcellulose) (HPC) 101 % of control | [7] 103 % of control | [1] 101 % of control | [8] 90 % of control | [2] 105 % of control

O=S(CCCl)c1ccccc1 (configuration not stated)
inactive: [1] 98 % of control | [2] 98 % of control | [3] 98 % of control

CN=C(N)c1ccc(C(=O)OCCOC)cc1
inactive: [13] 96 % of control | [14] 107 % of control | [15] 105 % of control

NNS(=O)(=O)c1ccc(OCC(=O)O)cc1
inactive: [7] 98 % of control | [1] 102 % of control | [8] 94 % of control | [2] 98 % of control | [9] 94 % of control | [3] 98 % of control

CCCCCCCCCCCCOc1ccc(C(=O)CC(=O)OCC)cc1
inactive: dose: 100.0 mg/kg/injection, schedule: Q01DX001 (ip), vehicle: acetone 95 % of control | dose: 200.0 mg/kg/injection, schedule: Q01DX001 (ip), vehicle: acetone 100 % of control | [19] 90 % of control | dose: 400.0 mg/kg/injection, schedule: Q01DX001 (ip), vehicle: acetone 108 % of control | [20] 89 % of control

C1CCCC(=NN=C2CCCCCCC2)CCC1
inactive: [16] 89 % of control | dose: 100.0 mg/kg/injection, schedule: Q04DX003 (ip), vehicle: saline 95 % of control | [17] 93 % of control | [19] 89 % of control | [18] 89 % of control | [20] 95 % of control
